ChEMBL document CHEMBL1201862, “PubChem BioAssay data set” (2004)
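Each compound was tested at five concentrations against cells in 96-well plates for 48 hours. The concentration for 50% growth inhibition is given as GI50.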 The source made the active and inactive calls. Cut-off read from the data, not from the text of the source: active = GI50 up to about 1.1 µM and inactive = higher.

Assays:
Assay in all cases: NCI tumour cell line growth inhibition, 48 h
SF-295 = test system: SF-295
HCT-116 = test system: HCT-116
UACC-62 = test system: UACC-62
CAKI-1 = test system: CAKI-1
UACC-257 = test system: UACC-257
HT-29 = test system: HT-29
COLO 205 = test system: COLO 205
M14 = test system: M14
LOX IMVI = test system: LOX IMVI
HOP-92 = test system: HOP-92
BT-549 = test system: BT-549
MOLT-4 = test system: MOLT-4
NCI/ADR-RES = test system: NCI/ADR-RES
SR = test system: SR
A498 = test system: A498
MDA-MB-435 = test system: MDA-MB-435
SK-MEL-28 = test system: SK-MEL-28
NCI-H460 = test system: NCI-H460
MDA-N = test system: MDA-N
SF-539 = test system: SF-539
EKVX = test system: EKVX
SNB-19 = test system: SNB-19
SK-OV-3 = test system: SK-OV-3
SNB-75 = test system: SNB-75
OVCAR-3 = test system: OVCAR-3
RXF 393 = test system: RXF 393
SW-620 = test system: SW-620
ACHN = test system: ACHN
HCC 2998 = test system: HCC 2998
OVCAR-5 = test system: OVCAR-5
U-251 = test system: U-251
NCI-H23 = test system: NCI-H23
TK-10 = test system: TK-10
HL-60 = test system: HL-60
PC-3 = test system: PC-3
K562 = test system: K562
SK-MEL-2 = test system: SK-MEL-2
HOP-62 = test system: HOP-62
NCI-H522 = test system: NCI-H522
OVCAR-4 = test system: OVCAR-4
A549 = test system: A549
MDA-MB-231 = test system: MDA-MB-231
SK-MEL-5 = test system: SK-MEL-5
Malme-3M = test system: Malme-3M
SN12C = test system: SN12C
T47D = test system: T47D
MCF7 = test system: MCF7
UO-31 = test system: UO-31
NCI-H226 = test system: NCI-H226
IGROV-1 = test system: IGROV-1
786-0 = test system: 786-0
KM12 = test system: KM12
Hs-578T = test system: Hs-578T
HCT-15 = test system: HCT-15
OVCAR-8 = test system: OVCAR-8
SF-268 = test system: SF-268
DU-145 = test system: DU-145
RPMI-8226 = test system: RPMI-8226
CCRF-CEM = test system: CCRF-CEM

## O=C(O)C1CC=CCC1C(=O)Nc1cccc(O)c1 (stereo unspecified)
SF-295
  GI50: > 100 µM (inactive)
HCT-116
  GI50: > 100 µM (inactive)
UACC-62
  GI50: > 100 µM (inactive)
CAKI-1
  GI50: > 100 µM (inactive)
UACC-257
  GI50: > 100 µM (inactive)
HT-29
  GI50: > 100 µM (inactive)
COLO 205
  GI50: > 100 µM (inactive)
M14
  GI50: > 100 µM (inactive)
LOX IMVI
  GI50: > 100 µM (inactive)
HOP-92
  GI50: > 100 µM (inactive)
BT-549
  GI50: > 100 µM (inactive)
MOLT-4
  GI50: > 100 µM (inactive)
NCI/ADR-RES
  GI50: > 100 µM (inactive)
SR
  GI50: > 100 µM (inactive)
A498
  GI50: > 100 µM (inactive)
MDA-MB-435
  GI50: > 100 µM (inactive)
SK-MEL-28
  GI50: > 100 µM (inactive)
NCI-H460
  GI50: > 100 µM (inactive)
MDA-N
  GI50: > 100 µM (inactive)
SF-539
  GI50: > 100 µM (inactive)
EKVX
  GI50: > 100 µM (inactive)
SNB-19
  GI50: > 100 µM (inactive)
SK-OV-3
  GI50: > 100 µM (inactive)
SNB-75
  GI50: > 100 µM (inactive)
OVCAR-3
  GI50: > 100 µM (inactive)
RXF 393
  GI50: > 100 µM (inactive)
SW-620
  GI50: > 100 µM (inactive)
ACHN
  GI50: > 100 µM (inactive)
HCC 2998
  GI50: > 100 µM (inactive)
OVCAR-5
  GI50: > 100 µM (inactive)
U-251
  GI50: > 100 µM (inactive)
NCI-H23
  GI50: > 100 µM (inactive)
TK-10
  GI50: > 100 µM (inactive)
HL-60
  GI50: > 100 µM (inactive)
PC-3
  GI50: > 100 µM (inactive)
K562
  GI50: > 100 µM (inactive)
SK-MEL-2
  GI50: > 100 µM (inactive)
HOP-62
  GI50: > 100 µM (inactive)
NCI-H522
  GI50: > 100 µM (inactive)
OVCAR-4
  GI50: > 100 µM (inactive)
A549
  GI50: > 100 µM (inactive)
MDA-MB-231
  GI50: > 100 µM (inactive)
SK-MEL-5
  GI50: > 100 µM (inactive)
Malme-3M
  GI50: > 100 µM (inactive)
SN12C
  GI50: > 100 µM (inactive)
T47D
  GI50: > 100 µM (inactive)
MCF7
  GI50: > 100 µM (inactive)
UO-31
  GI50: > 100 µM (inactive)
NCI-H226
  GI50: > 100 µM (inactive)
IGROV-1
  GI50: > 100 µM (inactive)
786-0
  GI50: > 100 µM (inactive)
KM12
  GI50: > 100 µM (inactive)
Hs-578T
  GI50: > 100 µM (inactive)
HCT-15
  GI50: > 100 µM
OVCAR-8
  GI50: > 100 µM (inactive)
SF-268
  GI50: > 100 µM (inactive)
DU-145
  GI50: > 100 µM (inactive)
RPMI-8226
  GI50: > 100 µM (inactive)

## CN(C)c1n2c3cc([N+](=O)[O-])ccc3[n+]3c(N(C)C)n4ccccc4c3c2c2cccc[n+]12.[O-][Cl+3]([O-])([O-])[O-].[O-][Cl+3]([O-])([O-])[O-]
SF-295
  GI50: > 100 µM (inactive)
HCT-116
  GI50: > 100 µM (inactive)
UACC-62
  GI50: > 100 µM (inactive)
CAKI-1
  GI50: > 100 µM (inactive)
UACC-257
  GI50: > 100 µM (inactive)
HT-29
  GI50: > 100 µM (inactive)
COLO 205
  GI50: > 100 µM (inactive)
M14
  GI50: > 100 µM (inactive)
LOX IMVI
  GI50: > 100 µM (inactive)
HOP-92
  GI50: > 100 µM (inactive)
BT-549
  GI50: > 100 µM (inactive)
MOLT-4
  GI50: > 100 µM (inactive)
NCI/ADR-RES
  GI50: > 100 µM (inactive)
SR
  GI50: > 100 µM (inactive)
A498
  GI50: > 100 µM (inactive)
MDA-MB-435
  GI50: > 100 µM (inactive)
SK-MEL-28
  GI50: > 100 µM (inactive)
NCI-H460
  GI50: > 100 µM (inactive)
MDA-N
  GI50: > 100 µM (inactive)
EKVX
  GI50: > 100 µM (inactive)
SNB-19
  GI50: 43.1 µM (inactive)
SK-OV-3
  GI50: > 100 µM (inactive)
SNB-75
  GI50: > 100 µM (inactive)
OVCAR-3
  GI50: > 100 µM (inactive)
RXF 393
  GI50: > 100 µM (inactive)
SW-620
  GI50: > 100 µM (inactive)
ACHN
  GI50: > 100 µM (inactive)
HCC 2998
  GI50: > 100 µM (inactive)
OVCAR-5
  GI50: > 100 µM (inactive)
U-251
  GI50: 51.1 µM (inactive)
NCI-H23
  GI50: > 100 µM (inactive)
TK-10
  GI50: > 100 µM (inactive)
CCRF-CEM
  GI50: > 100 µM (inactive)
HL-60
  GI50: > 100 µM (inactive)
PC-3
  GI50: > 100 µM (inactive)
K562
  GI50: > 100 µM (inactive)
SK-MEL-2
  GI50: > 100 µM (inactive)
HOP-62
  GI50: > 100 µM (inactive)
NCI-H522
  GI50: 34.9 µM (inactive)
OVCAR-4
  GI50: > 100 µM (inactive)
A549
  GI50: > 100 µM (inactive)
MDA-MB-231
  GI50: > 100 µM (inactive)
SK-MEL-5
  GI50: > 100 µM (inactive)
Malme-3M
  GI50: > 100 µM (inactive)
SN12C
  GI50: 38.9 µM (inactive)
T47D
  GI50: 73.3 µM (inactive)
MCF7
  GI50: 8.57 µM (inactive)
UO-31
  GI50: > 100 µM (inactive)
NCI-H226
  GI50: > 100 µM (inactive)
IGROV-1
  GI50: > 100 µM (inactive)
786-0
  GI50: > 100 µM (inactive)
KM12
  GI50: > 100 µM (inactive)
Hs-578T
  GI50: 29.9 µM (inactive)
HCT-15
  GI50: > 100 µM
OVCAR-8
  GI50: > 100 µM (inactive)
SF-268
  GI50: 29.7 µM (inactive)
DU-145
  GI50: > 100 µM (inactive)
RPMI-8226
  GI50: > 100 µM (inactive)
